# Measured values published in ChEMBL document CHEMBL3507680, “University of Dundee, Gates Library screen for HepG2 cell viability”.
# Experiment: Human HepG2 cell viability assay in 384 well format
# Assay type: toxicity, cell-based
# Parameters: dose 125 nL, time 70.5 hour; concentration not given beside the values
# Details: HepG2 cells, read-out: Inhibition
row,SMILES,cytotoxicity at 70.5 h
1,CC(C)CNS(=O)(=O)c1ccc(C(=O)N(C)CCc2cn[nH]c2)cc1,-8.39%
2,CO[C@@H]1CCN(C(=O)Cc2ccsc2)[C@H]1Cc1cccnc1,-5.91%
3,CS(=O)(=O)c1ccc(O[C@H]2COCCN(C(=O)c3ccno3)C2)cc1,-2.76%
4,C1CC(CN2C[C@H]3CC[C@@H]2CN(Cc2nnc(C4CC4)o2)C3)C1,-16.7%
5,CCC(CC)c1cc(C(=O)N2CCN(C(C#N)C(C)C)CC2)on1 (stereo not given),-6.08%
6,N#Cc1c(N)nc2c(c1-c1c[nH]nc1C1CCCCC1)COCC2,0.079%
7,CCOC(=O)C1CCCN(c2nccc(-n3nc(C)cc3C)n2)C1 (stereo not given),-9.69%
8,Cc1ccc2c(n1)N(CCN(C)C)CCN(C(=O)c1ccc[nH]1)C2,0.599%
9,CCOc1cc(/C=C/c2ncc(C(=O)O)s2)cc(Br)c1OC,-10.4%
10,COc1ccccc1S(=O)(=O)N1CCC(Oc2cccnn2)CC1,3.7%
11,C/C=C(\C)CN1C[C@@H](NC(=O)c2ccc(F)c(F)c2)C[C@H]1C(=O)NCC,-12.2%
12,CC(C)(O)CSCCNC(=O)c1cc(F)ccc1F,12.9%
13,Fc1cccnc1N1CCC(NCc2cccc3cn[nH]c23)C1 (stereo not given),3.51%
14,COc1c(CNC2(c3noc(C)n3)CCC2)c(C(C)C)nn1C,-0.972%
15,Cc1ccccc1OC1CCN(S(=O)(=O)c2c(C)n[nH]c2C)CC1,-6.57%
16,CCCc1n[nH]c(C2CN(C(=O)c3cc4c(s3)CCC4)CCO2)n1 (stereo not given),-7.08%
17,Cn1nccc1-c1nnn2c1COCC(CNCC1CC1)C2 (stereo not given),-2.84%
18,c1ccc(CN(Cc2cccc3cnccc23)CC2CCCO2)nc1 (stereo not given),-7.22%
19,CCCNc1ncc(CN2CCC3(CC2)CNC(=O)C3)cn1,12.6%
20,COCCN(C(=O)c1cc(C)no1)c1ccc(C#N)cc1,-8.51%
21,CC(C)CCN1CN=C(NS(=O)(=O)c2ccc(F)cc2)NC1,-8.69%
22,CCCc1nc(CN2CCCC2Cn2cccn2)cs1 (stereo not given),-11.6%
23,CC(C)CCNC(=O)C1CCN(c2ccc3nnc(C(C)C)n3n2)CC1,-30%

row,SMILES,cytotoxicity at 70.5 h
1,CCC(Cn1ccnc1)n1cnc2scc(C)c2c1=O (stereo not given),13.9%
2,Cc1ccc(OC2(C(=O)O)CCN(C(=O)c3nc(C)oc3C)CC2)cn1,-7.82%
3,Cc1nc2ccnn2c(C)c1CCC(=O)N1CCN(C2CC2)CC1,15.8%
4,O=C(NCCc1nnc[nH]1)Nc1cccc(SC(F)F)c1,-9.47%
5,Cc1cc(C(O)CCNC(=O)COc2ccccc2F)c(C)o1 (stereo not given),-0.424%
6,CC(C)c1nsc(N2CCOCC2)n1,-27.4%
7,Cc1nc(CNC(=O)NC2CCN(c3ncccc3Cl)C2)no1 (stereo not given),-3.51%
8,Cc1oc2c(c1C(=O)N1C[C@H](O)[C@]3(CCCO3)C1)CCCC2,-3.22%
9,CC(C)Cn1cncc1-c1nc2c([nH]1)CC(C)(C)CNC2=O,4.26%
10,O=C1CN([C@@H]2CC[C@@H](NS(=O)(=O)c3ccccc3)[C@H]2O)CCN1,-2.13%
11,Cc1ccc(S(=O)(=O)NCCNc2cc(-n3cccc3)ncn2)c(C)c1,-0.584%
12,Cc1n[nH]c(C2CN(Cc3nnc(C4CCC4)o3)CCO2)n1 (stereo not given),-1.02%
13,O=C(CNC1CCc2ncnn2C1)N(C1=CCCCC1)C1CC1 (stereo not given),-2.56%
14,CN1CCN(C(=O)CCc2cccnc2)c2ccc(F)cc21,1.2%
15,N#CCCN(C(=O)CN1CCCC1c1ccsc1)c1ccccc1 (stereo not given),20.9%
16,Cc1ccsc1C(=O)N(C)Cc1ccncc1,-7.89%
17,Cc1ccnc(NCCSc2nccn2C)n1,-5.33%
18,COc1ccc(C(=O)C2CCCN(c3cc(N)ncn3)C2)c(C)c1 (stereo not given),-10.4%
19,CC(C)CN1C[C@@H]2OCC(=O)N(Cc3nccn3C)[C@@H]2C1,14%
20,COC1CCCN(C(=O)NCc2ccc(C(=O)N(C)C(C)C)cc2)C1 (stereo not given),25.2%
21,O=C(c1ccn(-c2ccc(F)cc2)n1)N(CCO)Cc1cccnc1,15.5%
22,Cc1nccc(N[C@H]2CN(C(=O)CCN3CCCC3=O)C[C@@H]2C(C)C)n1,-19.6%
23,O=C1C[C@H]2[C@H](CCN2Cc2ccccn2)N1CC1CC1,-15.8%

row,SMILES,cytotoxicity at 70.5 h
1,Cc1ccc(CN2CCN(c3ncccc3C(N)=O)CC2CCO)cc1 (stereo not given),-2.3%
2,N#Cc1ccsc1C(=O)N1CCCCC1Cn1cccn1 (stereo not given),9.01%
3,Cc1noc(C)c1CN1CC2(CCCCN2C)CC1=O (stereo not given),17.1%
4,Cc1ccc(CNC2CCc3nc(C(C)C)nn3C2)o1 (stereo not given),-4.86%
5,Cc1nc2n(n1)CC(NCC(=O)Nc1cc(C)on1)CC2 (stereo not given),-6.78%
6,CCOC(=O)c1nc(CC(=O)Nc2ccc3cc[nH]c3c2)no1,-9.72%
7,N#Cc1ccc(N2CCN(c3cnccn3)CC2)c(C(F)(F)F)c1,2.94%
8,CCn1c(C)nnc1SCCNc1cc(OC)ncn1,-18.6%
9,Cc1nccn1CCCC(=O)N1CCN(c2cccnc2)CC1,4.06%
10,COc1cccc(-c2ncc(CN3C[C@@H]4CC[C@H](C3)N(C)C4=O)s2)c1,-0.692%
11,Cc1cc(C[S+]([O-])CC(=O)NCc2ccccc2)no1 (stereo not given),-5.28%
12,Nc1nc2c(s1)C(c1c(F)cccc1Cl)CC(=O)N2 (stereo not given),1.77%
13,CC(C)c1ncc(CN2CCOC(C(=O)Nc3ccccc3)C2)cn1 (stereo not given),-9.69%
14,Cc1nc(CC(=O)N2CCCN(c3ccc(C#N)cc3)CC2)cs1,-8.68%
15,CCNC(=O)N(C)C(c1cccnc1)C(C)C (stereo not given),-9.88%
16,Cc1cc(N2CCCC(O)CC2)n2nc(C)c(C)c2n1 (stereo not given),1.18%
17,CC(C)Nc1ncnc2c1CCN(C(=O)Cc1ccccn1)CC2,26.6%
18,O=C(COC1CCCC1)NC(C(=O)Nc1cc[nH]n1)c1ccccc1 (stereo not given),3.78%
19,CCOCCC(=O)N1CCc2cccc(S(=O)(=O)N3CCOCC3)c2C1,-9.19%
20,COCC(=O)Nc1ccc2c(c1)C1(CCOCC1)CN2CCF,16.5%
21,COc1ccc(NC(=O)c2nc3ccccc3n(C)c2=O)cc1OC,29.1%
22,COCCCN1CCCCC12CC(=O)N(Cc1ccccn1)C2 (stereo not given),-1.98%
23,NCc1cccc(-c2cccnc2C(=O)NCCCN2CCOCC2)c1,-3.76%

row,SMILES,cytotoxicity at 70.5 h
1,Cn1cnc(S(=O)(=O)NCC(O)c2ccc3c(c2)CCO3)c1 (stereo not given),-16.8%
2,O=C(Nc1ccncc1)C1=NN(c2ccccc2)C(=O)CN1,-16.1%
3,CCS(=O)(=O)N1CCC2(CC1)CN(C(=O)N(C)C)Cc1ccccc12,-2.71%
4,O=C1OCCN1Cc1nc(C2(c3ccc(F)cc3)CCOC2)no1 (stereo not given),-6.4%
5,CC(NCc1cccc(NC(=O)C2CCCCC2)c1)c1cnn(C)c1 (stereo not given),-9.44%
6,O=C(c1ccc2[nH]nnc2c1)N1CCC(Nc2cccnn2)CC1,10.7%
7,COCc1nn(C)c2c1CN(Cc1cnn(C)c1)CC2,-11.4%
8,CCNc1ncc(C(=O)NCc2csc(-c3ncccn3)n2)cn1,3.46%
9,COC(=O)c1ccn(COc2ccccc2Cl)n1,-9.21%
10,O=C(c1cncs1)N1CCC(Cc2cnc3[nH]ccc3c2)CC1,15.3%
11,COCCNC(=O)c1sc(Nc2ccc(Cl)cn2)nc1C,-13.2%
12,CS(=O)(=O)N1CCN(C(=O)c2cncs2)CC(C(N)=O)C1 (stereo not given),-5.12%
13,Cc1nc(C)n(CC2CCCN2CCc2cccs2)n1 (stereo not given),39.6%
14,CN(C)CCOc1ccccc1N1CCN(C(=O)C(C)(C)C#N)CC1,-0.199%
15,COCCCNc1ncnc2c1CCN(C(=O)CC1C=CCC1)CC2 (stereo not given),-5.04%
16,COc1ncnc(N)c1CNCC(C)SC (stereo not given),34.8%
17,O=C1N(CC2CC2)CCC12CCN(CC1CC1)CC2,-6.9%
18,CN1CC2(CCCN(Cc3ccc(Oc4ccccc4)cc3)C2)OC1=O (stereo not given),16.8%
19,O=C(Nc1nncs1)N1CCC(CCO)CC1,-7.1%
20,CSCCN1CCN(c2nc(N)ncc2C)CC1,21.4%
21,COC(=O)CNC(=O)CSCc1nc(O)c2c(C)c(C)sc2n1,-18.2%
22,O=C(NC1CCCC1)O[C@H]1COCCN(c2nc3ccccc3s2)C1,3.92%
23,CC1(C)CNC(=O)c2nc(C3CCCN(S(C)(=O)=O)C3)[nH]c2C1 (stereo not given),-6.33%

row,SMILES,cytotoxicity at 70.5 h
1,CCCNC(=O)C1CCCN(c2ccc3nncn3n2)C1 (stereo not given),-4.72%
2,COCC1CN(S(=O)(=O)c2cccc(F)c2)Cc2nccn2C1 (stereo not given),-7.05%
3,Cc1cnn(C2CCCN(C(=O)CCc3cnn(C)c3)C2)c1 (stereo not given),-4.01%
4,Cc1cccc(SC2CCN(C(=O)CCCS(N)(=O)=O)CC2)c1,-6.67%
5,Cc1cnn(CC2CCCN2Cc2cc(=O)n3cccc(C)c3n2)c1 (stereo not given),-7.45%
6,CN(C)C(=O)C1(Oc2ccc(Cl)cc2)CCNCC1,-3.42%
7,Cc1cnn(CC2CCCN2C(=O)Cc2n[nH]c3ccccc23)c1 (stereo not given),-14.5%
8,CCc1nc(C)c(C(C)N(C)CCOC)s1 (stereo not given),10.1%
9,CC(C)CNC(=O)CN(CC(=O)NCC(C)C)S(C)(=O)=O,-8.05%
10,O=C(CN1CC(n2cccn2)C1)NCCc1c[nH]c2ccccc12,-13.2%
11,CC(=O)N(C)CC(=O)Nc1cc(C(F)(F)F)c[nH]c1=O,-12.8%
12,Cc1ccc(N2CCCC(N(C)Cc3cc(C)on3)C2)nn1 (stereo not given),-5.56%
13,COc1c(C)cnc(CN(C)C(=O)c2cccc(NC(N)=O)c2)c1C,-2.3%
14,CC(C)(C)OC(=O)N1CSC[C@@H]1C(=O)NCc1ccncc1,-2.13%
15,CC(CCc1ccc(O)cc1)NC1CCN(S(C)(=O)=O)CC1 (stereo not given),-4.22%
16,Cc1ccc(C(=O)N2CCC3(CCC(=O)N(CC(N)=O)C3)CC2)c(O)c1,-9.11%
17,c1coc(-c2nc(CN3CCOC(Cn4cccn4)C3)cs2)c1 (stereo not given),29.1%
18,O=C(NCCCn1cncn1)N1CCC(N2CCCCC2)CC1,-2.83%
19,CCn1ncnc1C1CC(=O)NCc2nc(N)sc21 (stereo not given),27.6%
20,CCN(CC)CC(=O)N1CCN(CCCc2ccncc2)CC1,-0.476%
21,Cc1ccc(C)c2c(O)cc(CNCC(=O)N3CCCC3)nc12,22%
22,Cc1ccnn1CCC(=O)N1CCCC1c1cc2cccnc2[nH]1 (stereo not given),1.14%
23,CCc1noc(CS(=O)(=O)Cc2ccccc2C)n1,15%
